Measured values taken from patent US10168338B2, “Methods of identifying modulators of sestrin-gator-2 interaction for modulating mTORC1 activity” (Whitehead Institute for Biomedical Research, priority 2014, dated 2019).

Assays:
Sestrin2-GATOR2 complex = molecular target: T1, Sestrin2-GATOR2 complex (Homo sapiens, UniProt P58004); test: Amino acids added to ice-cold detergent lysates of amino acid-starved HEK-293T cells, FLAG immunoprecipitation; assay type: binding; conditions: ice-cold detergent lysates of HEK-293T cells starved for all amino acids
T1 construct: To isolate the FLAG-WDR24/endogenous-Sestrin2 complex; endogenous in cells; host or cells: HEK-293T cells stably expressing FLAG-WDR24; Sestrin2 and the other GATOR2 subunits are endogenous
T1 sequence (P58004 1-480): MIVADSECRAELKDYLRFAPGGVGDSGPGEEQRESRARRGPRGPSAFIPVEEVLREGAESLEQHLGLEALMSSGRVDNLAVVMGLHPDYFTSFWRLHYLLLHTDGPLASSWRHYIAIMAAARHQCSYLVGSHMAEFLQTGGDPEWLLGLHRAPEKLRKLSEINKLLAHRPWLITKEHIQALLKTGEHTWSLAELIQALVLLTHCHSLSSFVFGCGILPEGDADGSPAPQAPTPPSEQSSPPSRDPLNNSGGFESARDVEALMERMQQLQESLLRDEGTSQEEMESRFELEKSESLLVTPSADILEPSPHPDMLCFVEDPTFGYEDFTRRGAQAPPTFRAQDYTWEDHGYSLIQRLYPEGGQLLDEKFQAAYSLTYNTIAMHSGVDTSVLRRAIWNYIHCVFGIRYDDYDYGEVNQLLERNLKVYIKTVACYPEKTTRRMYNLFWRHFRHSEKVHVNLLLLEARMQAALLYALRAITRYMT
Procedure: HEK-293T cells stably expressing the FLAG-tagged GATOR2 component WDR24 were starved of all amino acids for 50 minutes. Individual amino acids were added pre-lysis to the cell culture media or post-lysis to cell lysates prior to FLAG immunoprecipitation.
We next tested if leucine acts directly on the Sestrin2-GATOR2 complex.

Sestrin1 = test: [3H]-leucine binding to FLAG-Sestrin1 immunoprecipitated from HEK-293T cells; parameters: species or system human; conditions: FLAG-tagged protein from HEK-293T
Procedure: (§1) Four million HEK-293T cells were plated in a 15 cm plate four days prior to the experiment. Each plate yielded the protein for one sample. Forty-eight hours after plating, the cells were transfected via the polyethylenimine method (O. Boussif et al., PNAS (USA), 92:7297-7301 (1995)) with the pRK5-based cDNA expression plasmids indicated in the figures in the following amounts: 5 μgFLAG-Sestrin2; 12 μg of the negative control Rap2A; 5 μg WDR24; 2 μg WDR24 with 4 μg each of HA-Seh1L, HA-Sec13, HA-Mios, and HA-WDR59; 12 […] (CG11299-PD); 12 μgFLAG-Sestrin1.1; 12 μg FLAG-Sestrin1.2; 12 μg FLAG-Sestrin3; 12 μg FLAG-Sestrin2 mutants (L261A, E451A, S190A) and up to 20 μg total DNA with empty-PRK5. Forty-eight hours after transfection cells were lysed as described in Example 1. […]
(§2) For the binding assays, two tubes at a time were washed as previously indicated for immunoprecipitations. […] With a cut tip, each sample was mixed well and three 10 μl aliquots were separately quantified using a TriCarb® scintillation counter (PerkinElmer). This process was repeated in pairs for each sample, to ensure similar incubation and wash times for all samples analyzed across different experiments.

Sestrin3 = molecular target: T2, Sestrin3 (Homo sapiens, UniProt P58005); test: [3H]-leucine binding to FLAG-Sestrin3 immunoprecipitated from HEK-293T cells; conditions: FLAG-tagged protein from HEK-293T
T2 construct: expressed in transfected cells; host or cells: HEK-293T, transient transfection of a pRK5-based cDNA plasmid, anti-FLAG immunoprecipitation
T2 sequence (P58005 1-492): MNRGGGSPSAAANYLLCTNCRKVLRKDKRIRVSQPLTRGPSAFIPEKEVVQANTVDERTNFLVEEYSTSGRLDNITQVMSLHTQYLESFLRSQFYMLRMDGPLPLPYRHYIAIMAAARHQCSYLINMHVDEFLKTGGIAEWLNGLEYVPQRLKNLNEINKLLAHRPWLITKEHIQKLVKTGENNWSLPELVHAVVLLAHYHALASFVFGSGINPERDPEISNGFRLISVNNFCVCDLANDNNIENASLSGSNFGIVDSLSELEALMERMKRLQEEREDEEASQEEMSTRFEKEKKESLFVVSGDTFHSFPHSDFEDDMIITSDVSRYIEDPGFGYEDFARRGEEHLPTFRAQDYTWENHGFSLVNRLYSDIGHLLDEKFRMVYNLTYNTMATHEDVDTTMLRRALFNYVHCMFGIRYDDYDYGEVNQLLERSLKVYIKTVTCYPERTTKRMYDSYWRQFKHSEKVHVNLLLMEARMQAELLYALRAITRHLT
Procedure: as §1, §2

CC(C)C[C@H](N)C(=O)O [leucine]
effect on Sestrin2-GATOR2 interaction when added to cell lysates (Sestrin2-GATOR2 complex): abrogated the interaction
binding of leucine to Sestrin1 (Sestrin1): to a similar extent as Sestrin2
binding of leucine to Sestrin3 (Sestrin3): only slightly above background
